Measurements reported in patent US6803378B2, “HIV integrase inhibitors” (Bristol-Myers Squibb Company, priority 2000, dated 2004).

These compounds were tested against T1, HIV Integrase (Human immunodeficiency virus type 1 group M subtype B, UniProt P04585) (assay: In vitro activity against integrase, Method B (SPA assay)). Settings: read-out: Percent inhibition of HIV Integrase at 70 uM.
T1 construct: 0.26 ng of recombinant integrase was then incubated with the beads
Assay type: biochemical
Experimental: (§1) The in vitro activities, against integrase, of compounds of the present invention were measured by one of the following three methods.
(§2) In Method B, the in vitro activity against integrase was measured by binding, for each reaction, 5 pmole of biotin labeled substrate DNA to 100 ug of Streptavidin coated PVT SPA beads (Amersham Pharmacia Biotech). 0.26 ng of recombinant integrase was then incubated with the beads for 90 min at 37° C. Unbound enzyme was removed by washing the complex followed by addition of inhibitors and 0.1 fmol of P33 labeled target DNA. Reaction was stopped by adding EDTA to a final concentration of 10 mM. Samples were counted in TopCountNXT (Packard) and the CPM was used as a measure of integration. Reaction condition was as described in A. Engelman and R. Craigie, J. Virol. 69, 5908-5911 (1995). The sequences of substrate and target DNA were described in Nucleic Acid Research 22, 1121-1122 (1994).

Structure (SMILES)	inhibition at 70 µM [%]
O=C(O)/C(O)=C/C(=O)N(Cc1ccccc1)Cc1ccccc1 [Compound 14, 3-Dibenzylcarbamoyl-2-hydroxy-acrylic acid]	94.5
CN(Cc1ccc(F)cc1)C(=O)/C=C(\O)C(=O)O [Compound 16, 3-[(4-Fluoro-benzyl)-methyl-carbamoyl]-2-hydroxy-acrylic acid]	97
O=C(O)/C(O)=C/C(=O)N(Cc1ccc(F)cc1)Cc1ccc2ccccc2c1 [Compound 53, 3-[(4-Fluoro-benzyl)-naphthalen-2-ylmethyl-carbamoyl]-2-hydroxy-acrylic acid]	99
CN(Cc1ccc2ccccc2c1)C(=O)/C=C(\O)C(=O)O [Compound 54, 2-Hydroxy-3-(methyl-naphthalen-2-ylmethyl-carbamoyl)-acrylic acid]	99
O=C(O)/C(O)=C/C(=O)N(Cc1ccc2ccccc2c1)c1ccc(Cl)cc1 [Compound 55, 3-[(4-Chloro-phenyl)-naphthalen-2-ylmethyl-carbamoyl]-2-hydroxy-acrylic acid]	99
O=C(O)/C(O)=C/C(=O)N(CCCc1ccccc1)c1ccc(Cl)cc1 [Compound 56, 3-[(4-Chloro-phenyl)-(3-phenyl-propyl)-carbamoyl]-2-hydroxy-acrylic acid]	88
O=C(O)/C(O)=C/C(=O)N(Cc1ccc(Cl)cc1)Cc1ccc(Cl)cc1 [Compound 57, 3-[Bis-(4-chloro-benzyl)-carbamoyl]-2-hydroxy-acrylic acid]	99
CN(Cc1ccc(F)c(Cl)c1)C(=O)/C=C(\O)C(=O)O [Compound 58, 3-[(3-Chloro-4-fluoro-benzyl)-methyl-carbamoyl]-2-hydroxy-acrylic acid]	99
CN(Cc1ccc(F)c(F)c1)C(=O)/C=C(\O)C(=O)O [Compound 59, 3-[(3,4-Difluoro-benzyl)-methyl-carbamoyl]-2-hydroxy-acrylic acid]	98
COc1cc(CN(C)C(=O)/C=C(\O)C(=O)O)ccc1F [Compound 60, 3-[(4-Fluoro-3-methoxy-benzyl)-methyl-carbamoyl]-2-hydroxy-acrylic acid]	99
Cc1cc(CN(C)C(=O)/C=C(\O)C(=O)O)ccc1F [Compound 61, 3-[(4-Fluoro-3-methyl-benzyl)-methyl-carbamoyl]-2-hydroxy-acrylic acid]	99
CN(Cc1cccc(Cl)c1)C(=O)/C=C(\O)C(=O)O [Compound 62, 3-[(3-Chloro-benzyl)-methyl-carbamoyl]-2-hydroxy-acrylic acid]	99
CN(Cc1cccc(-c2ccc(F)cc2)c1)C(=O)/C=C(\O)C(=O)O [Compound 63, 3-[(4′-Fluoro-biphenyl-3-ylmethyl)-methyl-carbamoyl]-2-hydroxy-acrylic acid]	98
CN(Cc1cccc(Oc2ccccc2)c1)C(=O)/C=C(\O)C(=O)O [Compound 64, 2-Hydroxy-3-[methyl-(3-phenoxy-benzyl)-carbamoyl]-acrylic acid]	95
O=C(O)/C(O)=C/C(=O)N(Cc1ccc(F)cc1)c1ccc(Cl)cc1 [Compound 70, 3-[(4-Chloro-phenyl)-(4-fluoro-benzyl)-carbamoyl]-2-hydroxy-acrylic acid]	92
Cc1ccc(CN(C(=O)/C=C(\O)C(=O)O)c2ccc(Cl)cc2)cc1 [Compound 71, 3-[(4-Chloro-phenyl)-(4-methyl-benzyl)-carbamoyl]-2-hydroxy-acrylic acid]	99
O=C(O)/C(O)=C/C(=O)N(Cc1ccc(F)cc1)c1ccc(F)cc1 [Compound 72, 3-[(4-Fluoro-benzyl)-(4-fluoro-phenyl)-carbamoyl]-2-hydroxy-acrylic acid]	99
Cc1ccc(CN(C(=O)/C=C(\O)C(=O)O)c2ccc(F)cc2)cc1 [Compound 73, 3-[(4-Fluoro-phenyl)-(4-methyl-benzyl)-carbamoyl]-2-hydroxy-acrylic acid]	99
O=C(O)/C(O)=C/C(=O)N(Cc1ccc(F)cc1)Cc1ccco1 [Compound 74, 3-[(4-Fluoro-benzyl)-furan-2-ylmethyl-carbamoyl]-2-hydroxy-acrylic acid]	98
COc1ccc(CN(Cc2ccc(F)cc2)C(=O)/C=C(\O)C(=O)O)cc1Cl [Compound 76, 3-[(3-Chloro-4-methoxy-benzyl)-(4-fluoro-benzyl)-carbamoyl]-2-hydroxy-acrylic acid]	99
CN(CCC(c1ccc(F)cc1)c1ccc(F)cc1)C(=O)/C=C(\O)C(=O)O [Compound 80, 3-{[3,3-Bis-(4-fluoro-phenyl)-propyl]-methyl-carbamoyl}-2-hydroxy-acrylic acid]	90
CN(Cc1ccccc1Cc1ccc(F)cc1)C(=O)/C=C(\O)C(=O)O [Compound 81, 3-{[2-(4-Fluoro-benzyl)-benzyl]-methyl-carbamoyl}-2-hydroxy-acrylic acid]	95
CN(Cc1ccccc1Cc1ccccc1)C(=O)/C=C(\O)C(=O)O [Compound 84, 3-[(2-Benzyl-benzyl)-methyl-carbamoyl]-2-hydroxy-acrylic acid]	88
Cc1ccc(CNC(=O)/C=C(\O)C(=O)O)cc1F [Compound 91, 3-(3-Fluoro-4-methyl-benzylcarbamoyl)-2-hydroxy-acrylic acid]	99
O=C(/C=C(\O)C(=O)O)NC(c1ccc(Cl)cc1)c1ccc(Cl)cc1 [Compound 92, 3-{[Bis-(4-chloro-phenyl)-methyl]-carbamoyl}-2-hydroxy-acrylic acid]	94
O=C(CCCCCNC(=O)/C(O)=C/C(=O)N(Cc1ccc(F)cc1)Cc1ccc(F)cc1)NS(=O)(=O)c1ccccc1 [Compound 146, 2-Hydroxy-but-2-enedioic acid 1-[(6-benzenesulfonylamino-6-oxo-hexyl)-amide] 4-[bis-(4-fluoro-benzyl)-amide]]	98

The compounds below were run against T1, HIV Integrase (assay: In vitro activity against integrase, Method C (electroluminescence, ECL assay)). Settings: read-out: Percent inhibition of HIV Integrase at 70 uM.
Assay type: biochemical
Experimental: as §1, §2
Method C (Electroluminesence Assay):
The ECL assay of Method C is essentially the same as the SPA assay of Method B, except that 0.5 μg of Streptavidin coated magnetic beads and 0.5 pmol Ru labeled target DNA were used for each reaction instead of SPA beads and P33 labeled DNA. The samples were read in a M8 analyzer (IGEN International, Inc).

Structure (SMILES)	inhibition at 70 µM [%]
CC(C)N(CCCc1ccccc1)C(=O)/C=C(\O)C(=O)O [Compound 44, 2-Hydroxy-3-[isopropyl-(3-phenyl-propyl)-carbamoyl]-acrylic acid]	95.5
CN(Cc1ccc(Cl)cc1)C(=O)/C=C(\O)C(=O)O [Compound 45, 3-[(4-Chloro-benzyl)-methyl-carbamoyl]-2-hydroxy-acrylic acid]	99
CN(CCCc1ccc(F)cc1)C(=O)/C=C(\O)C(=O)O [Compound 46, 3-{[3-(4-Fluoro-phenyl)-propyl]-methyl-carbamoyl}-2-hydroxy-acrylic acid]	99
O=C(O)/C(O)=C/C(=O)N(CCOc1ccc(F)cc1)Cc1ccc(F)cc1 [Compound 47, 3-{(4-Fluoro-benzyl)-[2-(4-fluoro-phenoxy)-ethyl]-carbamoyl}-2-hydroxy-acrylic acid]	99
CN(Cc1ccc(F)c(Br)c1)C(=O)C=C(O)C(=O)O [Compound 48, 3-[(3-Bromo-4-fluoro-benzyl)-methyl-carbamoyl]-2-hydroxy-acrylic acid]	99
O=C(O)/C(O)=C/C(=O)N(CCOc1ccccc1)Cc1ccc(F)cc1 [Compound 49, 3-[(4-Fluoro-benzyl)-(2-phenoxy-ethyl)-carbamoyl]-2-hydroxy-acrylic acid]	99
CC(c1ccc(F)cc1)N(C)C(=O)/C=C(\O)C(=O)O (stereo not shown) [Compound 50, 3-{[1-(4-Fluoro-phenyl)-ethyl]-methyl-carbamoyl}-2-hydroxy-acrylic acid]	99
O=C(O)/C(O)=C/C(=O)N(CCCc1ccccc1F)Cc1ccc(F)cc1 [Compound 51, 3-{(4-Fluoro-benzyl)-[3-(2-fluoro-phenyl)-propyl]-carbamoyl}-2-hydroxy-acrylic acid]	100
O=C(O)/C(O)=C/C(=O)N(Cc1ccc(F)cc1)CC1CC1c1ccccc1 (stereo not shown) [Compound 52, 3-[(4-Fluoro-benzyl)-(2-phenyl-cyclopropylmethyl)-carbamoyl]-2-hydroxy-acrylic acid]	99
CN(Cc1ccco1)C(=O)/C=C(\O)C(=O)O [Compound 75, 3-(Furan-2-ylmethyl-methyl-carbamoyl)-2-hydroxy-acrylic acid]	91
CN(C(=O)/C=C(\O)C(=O)O)C(Cc1ccc(F)cc1)c1ccc(F)cc1 (stereo not shown) [Compound 78, 3-{[1,2-Bis-(4-fluoro-phenyl)-ethyl]-methyl-carbamoyl}-2-hydroxy-acrylic acid]	75
CNC(=O)c1cccc(C(c2ccc(F)cc2)N(C)C(=O)/C=C(\O)C(=O)O)c1 (stereo not shown) [Compound 79, 3-{[(4-Fluoro-phenyl)-(3-methylcarbamoyl-phenyl)-methyl]-methyl-carbamoyl}-2-hydroxy-acrylic acid]	90
O=C(O)/C(O)=C/C(=O)N(CCCc1ccc(-c2ccccc2)cc1)Cc1ccc(F)cc1 [Compound 85, 3-[(3-Biphenyl-4-yl-propyl)-(4-fluoro-benzyl)-carbamoyl]-2-hydroxy-acrylic acid]	94
O=C(O)/C(O)=C/C(=O)N(CCc1ccncc1)Cc1ccc(F)cc1 [Compound 86, 3-[(4-Fluoro-benzyl)-(2-pyridin-4-yl-ethyl)-carbamoyl]-2-hydroxy-acrylic acid]	97
